According to ChEMBL document CHEMBL4837181 (Eur J Med Chem, 2020):

Legend:
[1] = Change in Cmax in rat at 500 umol/kg, po measured upto 72 hrs by LC-MS/MS analysis; assay type: ADME, organism-based; settings: in vivo, at 500 µmol/kg
[2] = Tmax in male cynomolgus monkey at 150 mg/kg, po BID measured on day 8; assay type: ADME, organism-based, Macaca fascicularis; settings: in vivo
[3] = AUC (0 to 24 hrs) in male cynomolgus monkey at 225 mg/kg, po measured on day 1; assay type: ADME, organism-based, Macaca fascicularis; design: time < 24 hr, route oral, dose 225 mg/kg; settings: male, in vivo
[4] = AUC (0 to 24 hrs) in female cynomolgus monkey at 150 mg/kg, po BID measured on day 8; assay type: ADME, organism-based, Macaca fascicularis; design: time < 24 hr, route oral, dose 150 mg/kg; settings: in vivo
[5] = Half life in mouse at 1147 micromol/kg administered as single dose; assay type: ADME; settings: in vivo, dose 1147 µmol/kg
[6] = Drug accumulation in rat at 100 to 900 mg/kg, po BID; assay type: ADME, organism-based; settings: in vivo, dose 100-900 mg/kg
[7] = Change in normalised AUCinfinity in rat at 10 mg/kg, po measured upto 72 hrs by LC-MS/MS analysis; assay type: ADME, organism-based; settings: in vivo
[8] = Half life in female cynomolgus monkey at 150 mg/kg, po measured on day 8; assay type: ADME, organism-based, Macaca fascicularis; settings: in vivo
[9] = Cmax in male cynomolgus monkey at 225 mg/kg, po measured on day 1; assay type: ADME, organism-based, Macaca fascicularis; design: route oral, dose 225 mg/kg; settings: in vivo
[10] = Cmax in male cynomolgus monkey at 75 mg/kg, po BID measured on day 8; assay type: ADME, organism-based, Macaca fascicularis; design: route oral, dose 75 mg/kg; settings: in vivo
[11] = Change in AUC(infinity) in rat at 500 umol/kg, po measured upto 72 hrs by LC-MS/MS analysis; assay type: ADME, organism-based; settings: in vivo, at 500 µmol/kg
[12] = Cmax in female cynomolgus monkey at 675 mg/kg, po measured on day 1; assay type: ADME, organism-based, Macaca fascicularis; design: route oral, dose 675 mg/kg; settings: in vivo
[13] = Drug accumulation in monkey at 75 to 375 mg/kg, po BID; assay type: ADME, organism-based, Macaca mulatta; settings: rhesus monkey, in vivo, dose 75-375 mg/kg
[14] = Change in normalised Cmax in rat at 10 mg/kg, po measured upto 72 hrs by LC-MS/MS analysis; assay type: ADME, organism-based; settings: in vivo
[15] = Half life in male cynomolgus monkey at 675 mg/kg, po measured on day 1; assay type: ADME, organism-based, Macaca fascicularis; settings: in vivo
[16] = Cmax in female cynomolgus monkey at 15 mg/kg, iv measured on day 1; assay type: ADME, organism-based, Macaca fascicularis; design: route intravenous, dose 15 mg/kg; settings: in vivo
[17] = Half life in mouse at 143 micromol/kg administered as single dose; assay type: ADME; settings: in vivo, dose 143 µmol/kg
[18] = Half life in mouse at 573 micromol/kg administered as single dose; assay type: ADME; settings: in vivo, dose 573 µmol/kg
[19] = Tmax in female cynomolgus monkey at 675 mg/kg, po measured on day 1; assay type: ADME, organism-based, Macaca fascicularis; settings: in vivo
[20] = Half life in female cynomolgus monkey at 675 mg/kg, po measured on day 1; assay type: ADME, organism-based, Macaca fascicularis; settings: in vivo
[21] = Tmax in female cynomolgus monkey at 375 mg/kg, po BID measured on day 8; assay type: ADME, organism-based, Macaca fascicularis; settings: in vivo
[22] = AUC (0 to 24 hrs) in male cynomolgus monkey at 675 mg/kg, po measured on day 1; assay type: ADME, organism-based, Macaca fascicularis; design: time < 24 hr, route oral, dose 675 mg/kg; settings: in vivo
[23] = Cmax in female cynomolgus monkey at 375 mg/kg, po BID measured on day 8; assay type: ADME, organism-based, Macaca fascicularis; design: route oral, dose 375 mg/kg; settings: in vivo
[24] = Cmax in female cynomolgus monkey at 75 mg/kg, po measured on day 1; assay type: ADME, organism-based, Macaca fascicularis; design: route oral, dose 75 mg/kg; settings: in vivo
[25] = Change in AUC(infinity) in cynomolgus monkey at 92 umol/kg, po measured after 0.083 to 48 hrs by LC-MS/MS analysis; assay type: ADME, organism-based, Macaca fascicularis; settings: in vivo, at 92 µmol/kg, time 0.083-48 hrs
[26] = Tmax in mouse at 287 micromol/kg administered as single dose; assay type: ADME; settings: in vivo, dose 287 µmol/kg
[27] = Half life in mouse at 287 micromol/kg administered as single dose; assay type: ADME; settings: in vivo, dose 287 µmol/kg
[28] = Cmax in male cynomolgus monkey at 675 mg/kg, po measured on day 1; assay type: ADME, organism-based, Macaca fascicularis; design: route oral, dose 675 mg/kg; settings: in vivo
[29] = Tmax in male cynomolgus monkey at 75 mg/kg, po BID measured on day 8; assay type: ADME, organism-based, Macaca fascicularis; settings: in vivo
[30] = Change in Cmax in cynomolgus monkey at 275 umol/kg, po measured after 0.083 to 48 hrs by LC-MS/MS analysis; assay type: ADME, organism-based, Macaca fascicularis; settings: in vivo, at 275 µmol/kg, time 0.083-48 hrs
[31] = Change in AUC(infinity) in cynomolgus monkey at 825 umol/kg, po measured after 0.083 to 48 hrs by LC-MS/MS analysis; assay type: ADME, organism-based, Macaca fascicularis; settings: in vivo, at 825 µmol/kg, time 0.083-48 hrs
[32] = Tmax in male cynomolgus monkey at 225 mg/kg, po measured on day 1; assay type: ADME, organism-based, Macaca fascicularis; settings: in vivo
[33] = Change in Cmax in rat at 185 umol/kg, po measured upto 72 hrs by LC-MS/MS analysis; assay type: ADME, organism-based; settings: in vivo, at 185 µmol/kg
[34] = Half life in male cynomolgus monkey at 150 mg/kg, po BID measured on day 8; assay type: ADME, organism-based, Macaca fascicularis; settings: in vivo
[35] = Dose normalized AUC (0 to infinity) in rat at 10 mg/kg, po measured upto 72 hrs by LC-MS/MS analysis; assay type: ADME, organism-based; settings: in vivo
[36] = Cmax in male cynomolgus monkey at 150 mg/kg, po BID measured on day 8; assay type: ADME, organism-based, Macaca fascicularis; design: route oral, dose 150 mg/kg; settings: in vivo
[37] = Cmax in female cynomolgus monkey at 75 mg/kg, po BID measured on day 8; assay type: ADME, organism-based, Macaca fascicularis; design: route oral, dose 75 mg/kg; settings: in vivo
[38] = AUC (0 to 24 hrs) in female cynomolgus monkey at 75 mg/kg, po measured on day 1; assay type: ADME, organism-based, Macaca fascicularis; design: time < 24 hr, route oral, dose 75 mg/kg; settings: in vivo
[39] = Dose normalized Cmax in rat at 10 mg/kg, po measured upto 72 hrs by LC-MS/MS analysis; assay type: ADME, organism-based; settings: in vivo
[40] = AUC (0 to 24 hrs) in male cynomolgus monkey at 150 mg/kg, po BID measured on day 8; assay type: ADME, organism-based, Macaca fascicularis; design: time < 24 hr, route oral, dose 150 mg/kg; settings: in vivo
[41] = Change in Cmax in rat at 37 umol/kg, po measured upto 72 hrs by LC-MS/MS analysis; assay type: ADME, organism-based; settings: in vivo, at 37 µmol/kg
[42] = Change in AUC (infinity) in rat at 37 umol/kg, po measured upto 72 hrs by LC-MS/MS analysis; assay type: ADME, organism-based; settings: in vivo, at 37 µmol/kg
[43] = AUC (0 to 24 hrs) in female cynomolgus monkey at 675 mg/kg, po measured on day 1; assay type: ADME, organism-based, Macaca fascicularis; design: time < 24 hr, route oral, dose 675 mg/kg; settings: in vivo
[44] = Tmax in female cynomolgus monkey at 75 mg/kg, po measured on day 8; assay type: ADME, organism-based, Macaca fascicularis; settings: in vivo
[45] = AUC (0 to 12 hrs) in po BID dosed cynomolgus monkey administered for 28 days; assay type: ADME, organism-based, Macaca fascicularis; design: route oral, time 28 day; settings: in vivo
[46] = Tmax in male cynomolgus monkey at 675 mg/kg, po measured on day 1; assay type: ADME, organism-based, Macaca fascicularis; settings: in vivo
[47] = Change in Cmax in cynomolgus monkey at 825 umol/kg, po measured after 0.083 to 48 hrs by LC-MS/MS analysis; assay type: ADME, organism-based, Macaca fascicularis; settings: in vivo, at 825 µmol/kg, time 0.083-48 hrs
[48] = Cmax in male cynomolgus monkey at 15 mg/kg, iv measured on day 1; assay type: ADME, organism-based, Macaca fascicularis; design: route intravenous, dose 15 mg/kg; settings: in vivo
[49] = Change in AUC(infinity) in cynomolgus monkey at 275 umol/kg, po measured after 0.083 to 48 hrs by LC-MS/MS analysis; assay type: ADME, organism-based, Macaca fascicularis; settings: in vivo, at 275 µmol/kg, time 0.083-48 hrs
[50] = Change in Cmax in cynomolgus monkey at 92 umol/kg, po measured after 0.083 to 48 hrs by LC-MS/MS analysis; assay type: ADME, organism-based, Macaca fascicularis; settings: in vivo, at 92 µmol/kg, time 0.083-48 hrs
[51] = Cmax in female cynomolgus monkey at 150 mg/kg, po measured on day 8; assay type: ADME, organism-based, Macaca fascicularis; design: route oral, dose 150 mg/kg; settings: in vivo

Structure (SMILES): Cn1cc(C[C@@H](N)C(=O)O)c2ccccc21 [INDOXIMOD]
- Activity [1]: 0%
- Tmax [2]: 2 h
- AUC(0-t) at 24 h [3]: 525 µM·h
- AUC at 24 h [4]: 403 µM·h
- half-life [5]: 3.4 h
- Drug metabolism [6]: Metabolite_Notdetected
- Activity [7]: 0%
- half-life [8]: 2.7 h
- Cmax [9]: 97.7 µM
- Cmax [10]: 47.3 µM
- Activity [11]: 0%
- Cmax [12]: 387 µM
- Drug metabolism [13]: Metabolite_Notdetected
- Activity [14]: 0%
- half-life [15]: 4.3 h
- Cmax [16]: 43.1 µM
- half-life [17]: 3 h
- half-life [18]: 3.1 h
- Tmax [19]: 2 h
- half-life [20]: 10.2 h
- Tmax [21]: 2.5 h
- AUC [22]: 4470 µM·h
- Cmax [23]: 203 µM
- Cmax [24]: 55 µM
- Activity [25]: 0%
- Tmax [26]: 0.6 h
- half-life [27]: 2.8 h
- Cmax [28]: 311 µM
- Tmax [29]: 1 h
- Activity [30]: 0%
- Activity [31]: 0%
- Tmax [32]: 2 h
- Activity [33]: 0%
- half-life [34]: 2.8 h
- AUC/dose [35]: 508 µM·h
- Cmax [36]: 93.4 µM
- Cmax [37]: 59.3 µM
- AUC(0-t) at 24 h [38]: 177 µM·h
- Cmax/dose [39]: 17.3 µM
- AUC at 24 h [40]: 509 µM·h
- Activity [41]: 0%
- Activity [42]: 0%
- AUC [43]: 6450 µM·h
- Tmax [44]: 1 h
- AUC at 672 h [45]: 320 µM·h
- Tmax [46]: 4 h
- Activity [47]: 0%
- Cmax [48]: 39.5 µM
- Activity [49]: 0%
- Activity [50]: 0%
- Cmax [51]: 79 µM

Structure (SMILES): CCOC(=O)[C@@H](Cc1cn(C)c2ccccc12)NC(=O)[C@@H](N)CC(C)C.Cl
- Activity [1]: 5%
- Tmax [2]: 2 h
- AUC(0-t) at 24 h [3]: 0.0602 µM·h
- AUC at 24 h [4]: 0.057 µM·h
- half-life [5]: 3.2 h
- Drug metabolism [6]: Metabolite_Notdetected
- Activity [7]: 75%
- half-life [8]: 3 h
- Cmax [9]: 0.0126 µM
- Cmax [10]: 0.00774 µM
- Activity [11]: 15%
- Cmax [12]: 0.0759 µM
- Drug metabolism [13]: Metabolite_Notdetected
- Activity [14]: 24%
- half-life [15]: 9.7 h
- Cmax [16]: 0.135 µM
- half-life [17]: 2.9 h
- half-life [18]: 3.1 h
- Tmax [19]: 1 h
- half-life [20]: 9.7 h
- Tmax [21]: 2 h
- AUC [22]: 0.966 µM·h
- Cmax [23]: 0.403 µM
- Cmax [24]: 0.00846 µM
- Activity [25]: 195%
- Tmax [26]: 0.5 h
- half-life [27]: 2.2 h
- Cmax [28]: 0.148 µM
- Tmax [29]: 1 h
- Activity [30]: 476%
- Activity [31]: 416%
- Tmax [32]: 3 h
- Activity [33]: 112%
- half-life [34]: 8.5 h
- AUC/dose [35]: 888 µM·h
- Cmax [36]: 0.0171 µM
- Cmax [37]: 0.00971 µM
- AUC(0-t) at 24 h [38]: 0.0287 µM·h
- Cmax/dose [39]: 16.2 µM
- AUC at 24 h [40]: 0.0806 µM·h
- Activity [41]: 92%
- Activity [42]: 70%
- AUC [43]: 0.966 µM·h
- Tmax [44]: 2 h
- AUC at 672 h [45]: 320 µM·h
- Tmax [46]: 2 h
- Activity [47]: 230%
- Cmax [48]: 0.135 µM
- Activity [49]: 518%
- Activity [50]: 518%
- Cmax [51]: 0.0105 µM
